# Columns and labels:
# [1] = target: T1, recombinant BACE1 extracellular domain (Homo sapiens, UniProt P56817); test: FRET-based BACE1 inhibition (BACE1-activity FRET) assay; type: biochemical
# T1 construct: purchased Thermo Fisher Scientific P2985
# Protocol: In addition, we performed a fluorescence resonance energy transfer (FRET)-based BACE1 inhibition assay using the recombinant BACE1 extracellular domain and a BACE1 substrate coupled to a donor fluorophore, which is unquenched […] to the activity of BACE1. […] (Figure 1F).
# Protease activity was determined using a FRET-based assay with recombinant BACE1 protein (Thermo Fisher Scientific; P2985). BACE1 inhibition was determined in end-points assays according to the manufacturer’s protocol except using a reduced volume of 12 μL in 384-well plates (Greiner, 788896). […] Fluorescence intensities were quantified with an infinite 200pro reader (Tecan) using top-reading mode. Data points were approximated using a logistic fit to determine half-inhibitory concentrations (pIC50).
# [2] = target: T2, hCathepsinD in HEK293T cells (Homo sapiens, UniProt P07339); test: Staining of transfected HEK293T cells, confocal imaging: Cathepsin D; type: cell-based
# T2 construct: EGFP or mCherry (C); host or cells: HEK293T
# T2 sequence (P07339 65-412): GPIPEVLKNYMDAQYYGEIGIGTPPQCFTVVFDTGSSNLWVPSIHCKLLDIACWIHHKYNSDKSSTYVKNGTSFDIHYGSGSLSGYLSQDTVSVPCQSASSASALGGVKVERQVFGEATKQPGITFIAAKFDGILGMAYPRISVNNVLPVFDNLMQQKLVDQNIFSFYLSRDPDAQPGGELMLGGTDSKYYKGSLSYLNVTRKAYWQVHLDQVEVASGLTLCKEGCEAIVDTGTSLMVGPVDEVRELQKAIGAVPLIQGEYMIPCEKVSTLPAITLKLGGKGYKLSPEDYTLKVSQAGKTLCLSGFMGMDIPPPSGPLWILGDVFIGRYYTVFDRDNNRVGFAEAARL
# Protocol: (§1) Next, we explored the performance of the new Alexa-C3 compounds in living cells. Because of the rather hydrophilic properties, we exclusively targeted the cell membrane. To prevent intracellular accumulation, we first performed stainings at 4 °C arresting ATP-dependent endocytosis. […] All of the constructs were tagged at the C-terminus with either EGFP or mCherry to visualize subcellular expression. […] With these experiments, we want to exclude that a lack of staining is caused by an impaired accessibility of the protein by Alexa-C3 compounds. […] We then tested samples with BACE1 expression after fixation of the cells with paraformaldehyde (PFA).
# (§2) (D) All conjugates were also probed on cells fixed with 4% paraformaldehyde (PFA) for 15 min prior to staining. […] Scale bars represent 5 μm (A–D) and 20 μm (E). […] Samples were excited at 488, 561, and 633 nm, respectively.
# HEK293T cells (ATCC accession number CRL-11268) were maintained in Dulbecco's modified Eagle's medium (Sigma-Aldrich D6046) with 1g/L glucose, supplemented with 10% FCS (Merck) and 1% penicillin/streptomycin (PAA). CHO-K1 cells (ATCC #CCL-61) were maintained in modified phenol red free RPMI-1640 medium (Sigma-Aldrich, R7509), supplemented with 2 mM L-glutamine (Sigma-Aldrich, G7513), and 10% FCS (Merck). Cells were cultured at 37 °C in a 5% CO2 atmosphere. […]
# [3] = target: T3, hBACE1 fused to EGFP or mCherry in HEK293T cells (Homo sapiens, UniProt P56817); test: Staining of transfected HEK293T cells, confocal imaging: BACE1; type: cell-based; conditions: for staining of BACE1 after preincubation with unconjugated C3: living HEK293T, preincubation with 2 μM C3
# T3 construct: expressed in transfected cells; host or cells: HEK293T
# T3 sequence (P56817 46-501): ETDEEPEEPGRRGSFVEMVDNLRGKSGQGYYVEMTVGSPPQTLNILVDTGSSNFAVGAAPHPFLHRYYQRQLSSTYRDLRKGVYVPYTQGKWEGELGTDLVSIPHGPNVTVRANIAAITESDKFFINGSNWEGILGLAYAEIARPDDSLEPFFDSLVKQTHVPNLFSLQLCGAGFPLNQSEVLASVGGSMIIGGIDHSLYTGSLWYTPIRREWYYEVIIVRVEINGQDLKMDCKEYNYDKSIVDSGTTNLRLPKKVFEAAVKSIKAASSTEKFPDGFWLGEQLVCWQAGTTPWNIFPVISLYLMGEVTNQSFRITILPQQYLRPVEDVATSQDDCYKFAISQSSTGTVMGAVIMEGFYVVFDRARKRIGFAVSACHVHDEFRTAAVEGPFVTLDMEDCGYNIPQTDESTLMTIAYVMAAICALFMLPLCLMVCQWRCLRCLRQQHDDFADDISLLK
# Protocol: as §1, §2
# HEK293T cells (ATCC accession number CRL-11268) were maintained in Dulbecco's modified Eagle's medium (Sigma-Aldrich D6046) with 1g/L glucose, supplemented with 10% FCS (Merck) and 1% penicillin/streptomycin (PAA). CHO-K1 cells (ATCC #CCL-61) were maintained in modified phenol red free RPMI-1640 medium (Sigma-Aldrich, R7509), supplemented with 2 mM L-glutamine (Sigma-Aldrich, G7513), and 10% FCS (Merck). Cells were cultured at 37 °C in a 5% CO2 atmosphere. The following plasmids were used for transfection with the amount of DNA indicated (per 35 mm Petri dish): hBACE1 (NM_012104.4), 50 ng for single molecule recordings, 200 ng otherwise; hBACE1 fused to EGFP or mCherry, 75 ng; hBACE1 D289N fused to EGFP or mCherry, 75 ng; hBACE1 D289N, 200–400 ng; hBACE2 (NM_012105.3) fused to EGFP, 75 ng; hCathepsinD (HsCD00438327), Harvard PlasmID, 75 ng. Transfection was performed 24 h after plating using jetPEI (Polyplus) according to the manufacturer’s protocol.
# For labeling, we plated HEK293T cells onto sterile 18 mm 1.5H borosilicate coverslips (VWR), coated with poly-D-lysine (Sigma). […] In addition, some cells were also fixed with 4% PFA or permeabilized with HBS + 50 μg/mL of Saponin for 15 min prior to staining as stated in the figure legend. After staining, live cells were washed with HBS twice. Confocal imaging was conducted at room temperature in HBS using the 63× objective and the pinhole set to 1 AU. Confocal imaging was performed 24 h after transfection.
# [4] = FCS of free Alexa-C3 in HBS in the absence of BACE1; conditions: 100 nM in HBS, pH 5, no BACE1, mean ± SD
# T1 sequence (P56817 46-457 limits assumed): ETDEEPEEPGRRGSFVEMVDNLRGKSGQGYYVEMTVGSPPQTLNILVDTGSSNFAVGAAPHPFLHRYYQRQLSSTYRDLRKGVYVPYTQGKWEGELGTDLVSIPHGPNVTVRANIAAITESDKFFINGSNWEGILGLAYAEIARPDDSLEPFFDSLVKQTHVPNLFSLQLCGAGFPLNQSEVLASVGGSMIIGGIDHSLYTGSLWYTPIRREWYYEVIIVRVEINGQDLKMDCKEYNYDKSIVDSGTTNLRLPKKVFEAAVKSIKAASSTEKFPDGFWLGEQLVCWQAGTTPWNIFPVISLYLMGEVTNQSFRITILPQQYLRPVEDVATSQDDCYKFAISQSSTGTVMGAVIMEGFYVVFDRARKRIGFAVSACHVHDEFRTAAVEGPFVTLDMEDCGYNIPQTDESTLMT
impairment of affinity to the catalytic center by dye attachment ([1]; compared with unconjugated C3) [fold],"pIC50 (negative logarithm of the half-inhibitory concentration) ([1]; logistic fit, n = 3 for each compound)",staining of Cathepsin D [2],"specificity in permeabilized cells ([3]; 50 μg/mL saponin prior to staining, 100 nM probe)",staining of BACE1 after fixation with PFA ([3]; HEK293T fixed with 4% PFA for 15 min prior to staining),staining of BACE1 after preincubation with unconjugated C3 [3],diffusion time constant of free probe [4] [μs],increase of potency of the pIC50 in a cell-free assay vs parent C3 ([1]; compared with unconjugated C3) [fold],"IC50 ([1]; logistic fit, n = 3 for each compound, read-out: pIC50 (negative logarithm of the half-inhibitory concentration) (converted)) [nM]",SMILES
10,6.53 (95% CI: 6.05–7.05),not labeled,the same specificity was observed,did not yield a considerable signal,absence of any staining,53 ± 18,,,C[C@@H](NC(=O)c1cc(C(=O)N[C@@H](Cc2ccccc2)[C@H](O)CNC2CC2)cc(N(C)S(=O)(=O)CCCNC(=O)CCCCCC2(C)C(/C=C/C=C/C=C3/N(CCCS(=O)(=O)O)c4ccc(S(=O)(=O)O)cc4C3(C)C)=[N+](CCCS(=O)(=O)[O-])c3ccc(S(=O)(=O)O)cc32)c1)c1ccccc1 (some centres unmarked)
,,,,,no appreciable fluorescence,35 ± 3,10,1.86,"C[C@@H](NC(=O)c1cc(C(=O)N[C@@H](Cc2ccccc2)[C@H](O)CNC2CC2)cc(N(C)S(=O)(=O)CCCNC(=O)c2ccc(C(=O)O)c(-c3c4ccc(=N)c(S(=O)(=O)O)c-4oc4c(S(=O)(=O)O)c(N)ccc34)c2)c1)c1ccccc1 [2-(6-Amino-3-iminio-4,5-disulfo-3H-xanthen-9-yl)-4-((3-(N-(3-(((2S,3R)-4-(cyclopropylamino)-3-hydroxy-1-phenylbutan-2-yl)carbamoyl)-5-(((R)-1-phenylethyl)carbamoyl)phenyl)-N-methylsulfamoyl)propyl)carbamoyl)benzoate]"

# — PMC11215771 (Journal of Medicinal Chemistry, 2024)
